Test results reported in patent US20250115739A1, “COMPOUND, RUBBER BLEND CONTAINING THE COMPOUND, VEHICLE TIRE COMPRISING THE RUBBER BLEND IN AT LEAST ONE COMPONENT, PROCESS FOR PREPARING THE COMPOUND, AND USE OF THE COMPOUND AS AN ANTI-AGING AGENT AND/OR ANTIOXIDANT” (Continental Reifen Deutschland GmbH, priority 2022, published 2025).

Test: Measurement of oxidation induction time (OIT) by DSC
Settings: for Time [min] at 180° C. (time to oxidation, oxidation induction time): isothermal 180° C., O2 atmosphere 50 ml/min, with polyisoprene LIR-50, DSC peak
Procedure: The compound of formula III) was investigated under laboratory conditions for its potential protective effect as an aging stabilizer by measurement of the oxidation induction time.
To this end the compounds of formula III) and 6-PPD in each case together with a polymer (liquid synthetic polyisoprene (IR), LIR-50, Kuraray, weight average molecular weight distribution Mw=54 000 g/mol, glass transition temperature Tg=−63° C.) were heated at constant temperature (180° C.) until onset of oxidation (start temperature 35° C., heating to 170° C. at a heating rate of 20 K/min (kelvin per minute), heating to 180° C. at a heating rate of 1 K/min; purge gas: nitrogen (N2), volume flow 50 ml/min).
The specimen was kept under isothermal conditions at 180° C. under an N2 atmosphere for 5 minutes and the atmosphere was then switched to an 02 atmosphere (volume flow 50 ml/min).
Oxidation was determined via a peak using DSC (differential scanning calorimetry).
The time in minutes to oxidation was measured.

## CC(C)CC(C)Nc1ccc(Nc2ccccc2)cc1 (stereo not drawn) [Substance 6PPD, N-(1,3-dimethylbutyl)-N′-phenyl-p-phenylenediamine, reference compound]
  Time [min] at 180° C. (time to oxidation, oxidation induction time): 116 ± 10 min

## CC1CCC2C(C1)Nc1ccc(Nc3ccccc3)cc1C2(C)C (stereo not drawn) [Formula III), 6,9,9-trimethyl-N-phenyl-5,6,7,8,8a,9,10,10a-octahydroacridin-2-amine]
  Time [min] at 180° C. (time to oxidation, oxidation induction time): 93 ± 10 min
Taking into account measurement accuracy of 10 minutes
  protective effect as aging stabilizer (from OIT): protective effect comparable to 6PPD
